# Measured values: patent EP2681209B1, “COMPOUNDS AND METHODS FOR THE TREATMENT OF PAIN AND OTHER DISORDERS” (Aquilus Pharmaceuticals, Inc, priority 2011, dated 2012)
# Assays:
# [1] = In-vitro microsomal stability in human microsomes; type: in vitro ADME; details: 1 µM compound, human microsomes 0.3 mg/mL
# Method: Human and mouse microsomal stability was determined for select compounds following the method of Houston (Houston, JB; Biochem. Pharmacol. 47, (1994),1469).
# 1 µM concentration of compound and seperate human and mouse microsomes (0.3 mg/mL, BD bioscience) were used in the in-vitro assay. To ensure proper energy supply for microsomal degradation of compound, an energy regenerating system comprised of 100 mM potassium phosphate, 2mM NADPH, 3mM MgCl2, pH = 7.4. and the microsomal protein is added to each sample and the resulting suspension is then incubated in duplicate for 60 min at 37° C. in a rotary shaker. A control is run for each test agent in duplicate omitting NADPH to detect NADPH-free degradation. At T=0 and T= 60 min., an aliquot is removed from each experimental and control reaction and then mixed with an equal volume of ice-cold Stop Solution (consisting of 0.3% acetic acid in acetonitrile containing haloperidol and diclofenac as internal standards). […] The samples are then centrifuged to remove precipitated protein, and the supernatants are then analyzed by LC-MS/MS to determine the percentage of compound remaining. […] After separation on a C18 reverse phase HPLC column (Agilent, Waters, or equivalent) using an acetonitrile-water gradient system, peaks were analyzed by mass spectrometry (MS) using ESI ionization in MRM mode.
# FVB male mice = test: Spinal nerve ligation (SNL) mouse model of neuropathic pain, intraperitoneal administration, von Frey tactile allodynia test; type: in vivo; details: for 50% paw withdrawal threshold, Mean, Day 1 / 50% paw withdrawal threshold, Mean, Day 2 / 50% paw withdrawal threshold, Mean, Day 5 / 50% paw withdrawal threshold, Mean, Day 6 / 50% paw withdrawal threshold, Mean, Day 7: IP 100 µl/mouse (approx. 3.3mg/Kg) daily injections day 1-5; for 50% paw withdrawal threshold, Mean, Day 0 Postoperative Baseline: group baseline after SNL injury, before first IP injection, von Frey
# Excerpt: To measure the neuropathic pain inhibiting affects of the MMP inhibitors of the present invention, the spinal nerve ligation (SNL) mouse model was run on a select number of compounds. This model which began with the work of Bennet and coworkers (Bennet, G.J. et al. Pain, 33, (1988), 87-107) and was optimized by Kim and Chung (Kim, S.H.; Chung, J.M. Pain, 50, (1992), 355-363) entails first, under magnification, the removal of one-third of the transverse process and then identifying and then dissecting free the L5 spinal nerve from the adjacent L4 spinal nerve in the mouse. The L5 spinal nerve is then tightly ligated using 6.0 silk suture. The nerve injury leads to hyperalgesia which manifests itself by enhanced responses to mechanical, heat and/or cooling stimuli. In this case, mechanical hyperalgesia is tested via Von Frey monofilaments in which filaments of varying thicknesses and bending force are individually applied to the plantar surface of the foot of the mouse. The threshold force necessary for paw withdrawal decreases dramatically after the nerve surgery. Potent pain inhibitors will reverse this affect resulting in greater force needing to be applied to cause the rodent paw to withdrawal.
# Tactile Allodynia Test. Mechanical allodynia was measured using the calibrated von Frey filaments (Semmes-Weinstein monofilaments; Stoelting, Wood Dale, IL, U.S.A.). The plantar surface of the left injured paw of each animal was tested as described by Chaplan et al. (Journal of Neuroscience Methods, 53, (1994), 55-63). The Fifty percent paw withdrawal threshold response was determined by sequentially increasing or decreasing the stimulus strength according to the "up-down method" of Dixon (Annual Review Pharmacology Toxicology, 20, (1980), 441-462). For mice, […] von Frey filaments were used, with approximately equal logarithmic incremental bending forces (von Frey number: 1.65, 2.36, 2.44, 2.83, 3.22, 3.61, 3.84, 4.08, and 4.17; equivalent to 0.005, 0.02, 0.03, 0.07, 0.17, 0.41, 0.69, 1.20, and 1.48g force, respectively).
# Prior to testing, each animal was placed in a suspended clear plastic chamber with a wire mesh bottom and acclimated for 15 minutes. Testing was initiated with the 0.07 g (handle marking of 2.83) applied perpendicularly to the plantar surface of the affected hind paw; each filament was applied with enough pressure to cause a buckle effect. The absence of a paw lifting/withdrawal response after 6 s prompted the use of the next higher weight filament. Paw withdrawal, indicating a positive response, prompted the use of a weaker filament. After the initial positive response (i.e., paw withdrawal), the testing continued for four additional measurements, and was used to calculate the response threshold. Four consecutive positive responses received a score of 0.001 g, and five consecutive negative responses (i.e., no paw withdrawal) received a score of 1.5 g.
# Analyses for Tactile Allodynia Testing. The 50% paw withdrawal threshold was calculated (PWT; Luo and Calcutt, J. Pharmacology Experimental Therapeutics, 303(3), (2002), 1199-1205; Chaplan et al. Journal of Neuroscience Methods, 53, (1994), 55-63) using the formula: 10(Xf + κδ)/10,000 [formula] where Xf is the final von Frey filament used (log units), κ is a value that analyzes the response pattern (taken from the table published by Chaplan et al., 1994), and δ is the mean difference between stimuli (log units).
# Except for the mode of administration, number of mice/group and the number of injections and amount per injection of compound given, the rest of the study was done in the same manner (in regards to the surgeries and tactile allodynia testing and analysis) as Experiment 110. 3.2 mg of each of the MMP inhibitors #5 and #10 were dissolved in 320 microliters of DMSO. To the solution was then added 32 microliters of Tween 80, followed by 2850 microliters of phosphate buffered saline (PBS). This gave a final concentration of 10% DMSO, 1% Tween and 1mg/ml compound. […]
# [2] = target: Catalytic domain of MMP-9 (human recombinant) (Homo sapiens, UniProt P14780); test: biochemical; details: read-out: Average Percent Inhibition (MMP-9)
# Method: A concentration of MMP inhibitor of the present invention was tested (1 microMolar) in duplicate runs. […] The mixture of enzyme and compound in assay buffer was then thoroughly mixed and incubated for 60 minutes at 37 °C. Upon the completion of incubation, the assay was started by the addition of 10 µM of fluorescent substrate DNP-Pro-Cha-Gly-Cys(Me)-His-Ala-Lys(N-Me-Abz)-NH2 [Cha = β -cyclohexylalanyl; Abz = 2-aminobenzoyl (anthraniloyl)] (Kd - 7 microMolar).
# MMP-2 = test: Gelatin zymography of mouse spinal cord for MMP-2 rebound effect; type: in vivo, mice
# MMP-9 = test: Gelatin zymography of mouse spinal cord for MMP-9 rebound effect; type: in vivo, mice
# Excerpt: There were three groups in the study comprising six mice for each group (Naive, control and compound 10 groups).
# [3] = 0.5 and 2 hours after naloxone precipitated withdrawal and cessation of compound administration, versus control
# [4] = after discontinuation of compound in naloxone precipitated withdrawal model
# Sequence of Catalytic domain of MMP-9 (human recombinant) (P14780 107-444 limits assumed): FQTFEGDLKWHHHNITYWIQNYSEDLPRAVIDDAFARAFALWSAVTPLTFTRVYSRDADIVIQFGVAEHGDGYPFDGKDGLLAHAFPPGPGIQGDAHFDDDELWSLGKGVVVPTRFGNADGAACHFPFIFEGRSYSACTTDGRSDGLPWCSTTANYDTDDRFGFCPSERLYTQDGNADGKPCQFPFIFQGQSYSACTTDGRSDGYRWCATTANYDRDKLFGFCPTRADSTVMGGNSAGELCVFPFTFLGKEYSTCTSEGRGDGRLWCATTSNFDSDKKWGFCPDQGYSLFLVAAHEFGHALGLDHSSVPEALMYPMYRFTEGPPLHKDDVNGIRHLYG
SMILES,Mean Remaining Parent with NADPH (%) ([1]; 60 min at 37° C),"Mean Remaining Parent without NADPH (%) ([1]; control omitting NADPH, at T = 60 minutes)","50% paw withdrawal threshold, Mean, Day 1 (FVB male mice)","50% paw withdrawal threshold, Mean, Day 2 (FVB male mice)","50% paw withdrawal threshold, Mean, Day 5 (FVB male mice)","50% paw withdrawal threshold, Mean, Day 6 (FVB male mice)","50% paw withdrawal threshold, Mean, Day 7 (FVB male mice)","50% paw withdrawal threshold, Mean, Day 0 Postoperative Baseline (FVB male mice)",inhibition at 1 µM [2],"reversal of mechanical alodynia (FVB male mice; i.p. administration, by day 5)",MMP-2 levels in spinal cord (MMP-2; [3]),MMP-2 rebound effect due to discontinuation (MMP-2; [4]),MMP-9 levels in spinal cord (MMP-9; [3]),MMP-9 rebound effect due to discontinuation (MMP-9; [4])
"Cc1ccc(C#Cc2ccc(S(=O)(=O)N[C@H](Cc3c[nH]c4ccccc34)C(=O)O)s2)cc1 [Compound 5, (R)-3-(1H-Indol-3-yl)-2-(5-p-tolylethynyl-thiophene-2-sulfonylamino)-propionic acid]",86%,89%,0.078 g,0.117 g,0.238 g,0.099 g,0.128 g,0.046 g,82%,,,,,
"[2H]C([2H])([2H])c1ccc(C#Cc2ccc(S(=O)(=O)N[C@H](Cc3c[nH]c4ccccc34)C(=O)O)s2)cc1 [Compound 10, (R)-3-(1H-Indol-3-yl)-2-[5-(4-trideuteromethyl-phenylethynyl)-thiophene-2-sulfonylamino]-propionic acid-(D3, 98%)]",,,0.170 g,0.350 g,1.470 g,0.867 g,0.250 g,0.096 g,,complete reversal of mechanical alodynia by day 5,stayed the same or were slightly lower than the control,No evidence of a MMP-2 and/or MMP-9 rebound effect,stayed the same or were slightly lower than the control,No evidence of a MMP-2 and/or MMP-9 rebound effect
